Values quoted from earlier work in patent US5476644A, “Cyclic triamine chelating agents” (Sterling Winthrop Inc., priority 1994, dated 1995).

Conditions: background statement; cited from earlier work

[Gd] [free form of Gd, gadolinium]
toxicity of the free form: quite toxic
